# Literature values in patent US20240082176A1 (Productos Farmaceuticos, S.A. DE C.V., priority 2017, published 2024).
# Assays:
# [1] = test system: citric acid-induced cough
# [2] = in vivo
# [3] = in vivo; remark: listed apart in the source
smiles,measurement,setting,value
"OCC(O)CN1CCN(c2ccccc2)CC1 (racemic) [dropropizine, (R, S)-3-(4-phenylpiperazin-1-yl) propane-1,2-diol]",time after administration at which cough suppression is reached,[1]; after the administration of the drug,1 h
same,period for which the antitussive effect persists,"[1]; human, in vivo",6 h
same,elimination half-life,[2],4 h
same,antitussive activity compared with codeine,cough; vs codeine,comparable
same,antitussive activity compared with its levo enantiomer,cough; vs levodropropizine,comparable
"Nc1c(Br)cc(Br)cc1CN[C@H]1CC[C@H](O)CC1 [ambroxol, trans-4-[(2-amino-3,5-dibromophenyl)methylamino] cyclohexane-1-ol]",renal clearance as share of total clearance,[3],8%
same,terminal elimination half-life,[3],10 h
OC[C@@H](O)CN1CCN(c2ccccc2)CC1 [levodropropizine],oral bioavailability,estimated,greater than 75%
same,half-life t1/2,in vivo,2 h
same,plasma protein binding,plasma protein,11-14%
